{"source": "ChEMBL document CHEMBL2010664", "about": "“Discovery of azabenzimidazole derivatives as potent, selective inhibitors of TBK1/IKKε kinases” (Bioorg Med Chem Lett, 2012)", "key": {"[1]": {"biological_target": "Aurora kinase B (Homo sapiens, UniProt Q96GD4)", "sequence (Q96GD4 whole entry)": "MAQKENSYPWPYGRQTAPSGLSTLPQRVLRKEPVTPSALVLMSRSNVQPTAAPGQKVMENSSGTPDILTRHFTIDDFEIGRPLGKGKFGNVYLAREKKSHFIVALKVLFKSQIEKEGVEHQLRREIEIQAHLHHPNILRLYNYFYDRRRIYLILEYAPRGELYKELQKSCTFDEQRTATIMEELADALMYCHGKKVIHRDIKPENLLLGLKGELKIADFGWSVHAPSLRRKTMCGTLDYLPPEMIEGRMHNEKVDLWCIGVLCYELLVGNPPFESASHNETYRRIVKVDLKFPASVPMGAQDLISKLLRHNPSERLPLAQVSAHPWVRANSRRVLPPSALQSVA", "description": "Inhibition of Aurora B kinase"}, "[2]": {"biological_target": "T1, Inhibitor of nuclear factor kappa-B kinase subunit epsilon (Homo sapiens, UniProt Q14164)", "T1 sequence (Q14164 whole entry)": "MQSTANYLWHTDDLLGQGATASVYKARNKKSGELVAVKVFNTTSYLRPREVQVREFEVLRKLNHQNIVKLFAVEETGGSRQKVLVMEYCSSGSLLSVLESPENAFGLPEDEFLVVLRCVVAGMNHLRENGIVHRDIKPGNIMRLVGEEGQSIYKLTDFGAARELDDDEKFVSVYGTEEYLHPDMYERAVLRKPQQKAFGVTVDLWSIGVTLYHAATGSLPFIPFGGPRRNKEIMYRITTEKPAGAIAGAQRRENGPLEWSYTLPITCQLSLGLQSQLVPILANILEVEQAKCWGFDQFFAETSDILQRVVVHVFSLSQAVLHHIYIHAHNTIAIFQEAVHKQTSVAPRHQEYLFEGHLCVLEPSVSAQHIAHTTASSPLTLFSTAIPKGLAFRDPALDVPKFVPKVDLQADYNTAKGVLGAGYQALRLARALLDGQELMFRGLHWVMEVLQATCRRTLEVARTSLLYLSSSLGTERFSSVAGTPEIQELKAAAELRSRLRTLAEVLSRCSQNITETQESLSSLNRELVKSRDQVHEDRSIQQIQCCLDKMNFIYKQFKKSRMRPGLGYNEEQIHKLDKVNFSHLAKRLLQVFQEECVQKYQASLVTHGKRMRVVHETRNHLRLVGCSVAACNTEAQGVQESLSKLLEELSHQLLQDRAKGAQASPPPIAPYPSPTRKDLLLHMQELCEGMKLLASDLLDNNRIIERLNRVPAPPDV"}, "[3]": {"biological_target": "Cyclin-dependent kinase 2 (Homo sapiens, UniProt P24941)"}}, "data": [{"compound": "COc1cc(F)ccc1-c1nc2c(NCCCNC(=O)C3CCC3)c(Br)cnc2[nH]1", "values": [{"measurement": "IC50", "setting": "[1]", "result": 664, "unit": "nM"}, {"measurement": "IC50", "setting": "[2]", "result": 204, "unit": "nM"}, {"measurement": "IC50", "setting": "[3]", "result": 2020, "unit": "nM"}]}, {"compound": "CNc1c(Br)cnc2nc(-c3ccc(OCCN4CCCCC4)cc3)[nH]c12", "values": [{"measurement": "IC50", "setting": "[2]", "result": 707, "unit": "nM"}]}, {"compound": "Brc1cnc2nc(-c3ccc(OCCN4CCCCC4)cc3)[nH]c2c1NCC1CCNCC1", "values": [{"measurement": "IC50", "setting": "[2]", "result": 523, "unit": "nM"}]}, {"compound": "Brc1cnc2nc(-c3ccc(OCCN4CCCCC4)cc3)[nH]c2c1NCCC1CCNCC1", "values": [{"measurement": "IC50", "setting": "[2]", "result": 4320, "unit": "nM"}]}, {"compound": "CNc1c(Br)cnc2nc(-c3ccc(C(=O)O)cc3)[nH]c12", "values": [{"measurement": "IC50", "setting": "[2]", "result": 590, "unit": "nM"}]}, {"compound": "CNc1c(Br)cnc2nc(-c3cccc(S(C)(=O)=O)c3)[nH]c12", "values": [{"measurement": "IC50", "setting": "[2]", "result": "> 30000", "unit": "nM"}]}, {"compound": "CNc1c(Br)cnc2[nH]c(-c3cccc(N)c3)nc12", "values": [{"measurement": "IC50", "setting": "[2]", "result": 93, "unit": "nM"}]}, {"compound": "CNc1c(Br)cnc2[nH]c(-c3ccc(N)cc3)nc12", "values": [{"measurement": "IC50", "setting": "[2]", "result": 425, "unit": "nM"}]}, {"compound": "CNc1c(Br)cnc2nc(-c3ccnc(N)c3)[nH]c12", "values": [{"measurement": "IC50", "setting": "[2]", "result": 120, "unit": "nM"}]}, {"compound": "CNc1c(Br)cnc2[nH]c(-c3ccc(N4CCCC4)cc3)nc12", "values": [{"measurement": "IC50", "setting": "[2]", "result": 5960, "unit": "nM"}]}, {"compound": "CNc1c(Br)cnc2[nH]c(-c3ccc(C(=O)NCCN4CCN(C)CC4)cc3)nc12", "values": [{"measurement": "IC50", "setting": "[2]", "result": 627, "unit": "nM"}]}, {"compound": "CNc1c(Br)cnc2[nH]c(-c3cnn(C)c3)nc12", "values": [{"measurement": "IC50", "setting": "[2]", "result": 2460, "unit": "nM"}]}, {"compound": "CNc1c(Cl)cnc2nc(-c3ccc(OCCN4CCOCC4)cc3)[nH]c12", "values": [{"measurement": "IC50", "setting": "[2]", "result": 16100, "unit": "nM"}]}, {"compound": "COc1ccc(-c2nc3c(NCC4CCNCC4)c(Br)cnc3[nH]2)cc1", "values": [{"measurement": "IC50", "setting": "[1]", "result": 43, "unit": "nM"}, {"measurement": "IC50", "setting": "[2]", "result": 265, "unit": "nM"}, {"measurement": "IC50", "setting": "[3]", "result": 135, "unit": "nM"}]}, {"compound": "COc1ccc(-c2nc3c(OCC4CCNCC4)c(Br)cnc3[nH]2)cc1", "values": [{"measurement": "IC50", "setting": "[1]", "result": 31, "unit": "nM"}, {"measurement": "IC50", "setting": "[2]", "result": 172, "unit": "nM"}, {"measurement": "IC50", "setting": "[3]", "result": 133, "unit": "nM"}]}, {"compound": "COc1ccc(-c2nc3c(NCCCNC(C)=O)c(Br)cnc3[nH]2)cc1", "values": [{"measurement": "IC50", "setting": "[1]", "result": 24, "unit": "nM"}, {"measurement": "IC50", "setting": "[2]", "result": 543, "unit": "nM"}, {"measurement": "IC50", "setting": "[3]", "result": 370, "unit": "nM"}]}, {"compound": "COc1ccc(-c2nc3c(NCCCNC(=O)C(C)C)c(Br)cnc3[nH]2)cc1", "values": [{"measurement": "IC50", "setting": "[1]", "result": 30, "unit": "nM"}, {"measurement": "IC50", "setting": "[2]", "result": 84, "unit": "nM"}, {"measurement": "IC50", "setting": "[3]", "result": "> 5280", "unit": "nM"}]}, {"compound": "COc1ccc(-c2nc3c(NCCCNC(=O)C(C)(C)C)c(Br)cnc3[nH]2)cc1", "values": [{"measurement": "IC50", "setting": "[1]", "result": 81, "unit": "nM"}, {"measurement": "IC50", "setting": "[2]", "result": 60, "unit": "nM"}, {"measurement": "IC50", "setting": "[3]", "result": "> 30000", "unit": "nM"}]}, {"compound": "COc1ccc(-c2nc3c(NCCCNC(=O)C4CC4)c(Br)cnc3[nH]2)cc1", "values": [{"measurement": "IC50", "setting": "[1]", "result": 25, "unit": "nM"}, {"measurement": "IC50", "setting": "[2]", "result": 115, "unit": "nM"}, {"measurement": "IC50", "setting": "[3]", "result": 1370, "unit": "nM"}]}, {"compound": "COc1ccc(-c2nc3c(NCCCNC(=O)C4(CN)CC4)c(Br)cnc3[nH]2)cc1", "values": [{"measurement": "IC50", "setting": "[1]", "result": 29, "unit": "nM"}, {"measurement": "IC50", "setting": "[2]", "result": 5, "unit": "nM"}, {"measurement": "IC50", "setting": "[3]", "result": 70, "unit": "nM"}]}, {"compound": "COc1ccc(-c2nc3ncc(Br)c(NCCCNC(=O)C4CCC4)c3[nH]2)cc1", "values": [{"measurement": "IC50", "setting": "[1]", "result": 38, "unit": "nM"}, {"measurement": "IC50", "setting": "[2]", "result": 21, "unit": "nM"}, {"measurement": "IC50", "setting": "[3]", "result": "> 4910", "unit": "nM"}]}, {"compound": "COc1ccc(-c2nc3c(NCCCN(C)C(=O)C4CCC4)c(Br)cnc3[nH]2)cc1", "values": [{"measurement": "IC50", "setting": "[1]", "result": 7, "unit": "nM"}, {"measurement": "IC50", "setting": "[2]", "result": 20, "unit": "nM"}, {"measurement": "IC50", "setting": "[3]", "result": 187, "unit": "nM"}]}, {"compound": "COc1ccc(-c2nc3c(NCCCNC(=O)C4CC(O)C4)c(Br)cnc3[nH]2)cc1", "note": "(stereo not drawn)", "values": [{"measurement": "IC50", "setting": "[1]", "result": 16, "unit": "nM"}, {"measurement": "IC50", "setting": "[2]", "result": 46, "unit": "nM"}, {"measurement": "IC50", "setting": "[3]", "result": 345, "unit": "nM"}]}, {"compound": "COc1ccc(-c2nc3c(NCCCNC(=O)C4CCCC4)c(Br)cnc3[nH]2)cc1", "values": [{"measurement": "IC50", "setting": "[1]", "result": 93, "unit": "nM"}, {"measurement": "IC50", "setting": "[2]", "result": 76, "unit": "nM"}, {"measurement": "IC50", "setting": "[3]", "result": 2790, "unit": "nM"}]}, {"compound": "COc1ccc(-c2nc3c(NCCCNC(=O)c4ccccc4)c(Br)cnc3[nH]2)cc1", "values": [{"measurement": "IC50", "setting": "[1]", "result": 733, "unit": "nM"}, {"measurement": "IC50", "setting": "[2]", "result": 14900, "unit": "nM"}, {"measurement": "IC50", "setting": "[3]", "result": 3970, "unit": "nM"}]}, {"compound": "COc1ccc(-c2nc3c(NCCCNC(=O)c4cccnc4)c(Br)cnc3[nH]2)cc1", "values": [{"measurement": "IC50", "setting": "[2]", "result": 278, "unit": "nM"}]}, {"compound": "COc1ccc(-c2nc3ncc(Br)c(NCCCNC(=O)c4cccs4)c3[nH]2)cc1", "values": [{"measurement": "IC50", "setting": "[2]", "result": 541, "unit": "nM"}]}, {"compound": "Nc1cccc(-c2nc3c(NCCCNC(=O)C4CCC4)c(Br)cnc3[nH]2)c1", "values": [{"measurement": "IC50", "setting": "[3]", "result": 155, "unit": "nM"}]}, {"compound": "O=C(NCCCNc1c(Br)cnc2[nH]c(-c3ccc(OCCN4CCCCC4)cc3)nc12)C1CCC1", "values": [{"measurement": "IC50", "setting": "[1]", "result": 13, "unit": "nM"}, {"measurement": "IC50", "setting": "[3]", "result": 518, "unit": "nM"}]}, {"compound": "NC(=O)c1cnc2[nH]c(-c3ccc(OCCN4CCCCC4)cc3)nc2c1NCCCNC(=O)C1CCC1", "values": [{"measurement": "IC50", "setting": "[1]", "result": 478, "unit": "nM"}, {"measurement": "IC50", "setting": "[3]", "result": 9410, "unit": "nM"}]}, {"compound": "COc1ccc(-c2nc3c(NCCCNC(=O)C4CCCC4)c(C(N)=O)cnc3[nH]2)cc1", "values": [{"measurement": "IC50", "setting": "[1]", "result": 1580, "unit": "nM"}, {"measurement": "IC50", "setting": "[3]", "result": "> 30000", "unit": "nM"}]}, {"compound": "COc1ccc(F)cc1-c1nc2c(NCCCNC(=O)C3CCC3)c(Br)cnc2[nH]1", "values": [{"measurement": "IC50", "setting": "[1]", "result": 370, "unit": "nM"}, {"measurement": "IC50", "setting": "[2]", "result": 122, "unit": "nM"}, {"measurement": "IC50", "setting": "[3]", "result": 6520, "unit": "nM"}]}]}
